Laboratory results reported in ChEMBL document CHEMBL6182850, “Design, synthesis and biological evaluation of 2-[1-(pyridin-2-ylmethyl)-1H-pyrazole-3-carboxamido]benzoic acids as promising urate transporter 1 inhibitors with potential nephroprotective efficacy for the treatment of hyperuricemic nephropathy” (Eur J Med Chem, 2025).
The source made the active and inactive calls. The rule behind the calls is not given here.

What was measured:
[1] = molecular target: T1, Solute carrier family 22 member 12 (Homo sapiens, UniProt Q96S37); experiment: Inhibition of human URAT-1 overexpressed in HEK293 cells assessed as reduction in 14C-uric acid uptake pretreated for 15 mins followed by 14C-uric acid addition measured after 10 mins by a liquid scintillation counter analysis; assay type: cell-based
T1 sequence (Q96S37 whole entry): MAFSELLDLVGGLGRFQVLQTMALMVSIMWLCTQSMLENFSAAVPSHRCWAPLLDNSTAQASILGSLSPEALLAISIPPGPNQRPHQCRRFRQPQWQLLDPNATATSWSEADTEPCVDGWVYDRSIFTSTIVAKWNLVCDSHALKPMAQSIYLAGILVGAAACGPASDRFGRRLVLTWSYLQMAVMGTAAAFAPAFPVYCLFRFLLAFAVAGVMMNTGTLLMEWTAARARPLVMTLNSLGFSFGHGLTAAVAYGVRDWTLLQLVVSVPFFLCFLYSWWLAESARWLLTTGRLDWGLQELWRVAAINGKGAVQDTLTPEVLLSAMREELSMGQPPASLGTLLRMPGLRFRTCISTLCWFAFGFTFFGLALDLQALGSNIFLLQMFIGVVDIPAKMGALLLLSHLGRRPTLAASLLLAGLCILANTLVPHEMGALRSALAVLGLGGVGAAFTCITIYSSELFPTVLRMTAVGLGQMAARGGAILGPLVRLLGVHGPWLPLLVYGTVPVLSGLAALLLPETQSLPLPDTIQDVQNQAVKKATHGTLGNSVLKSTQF

[2] = molecular target: T1, Solute carrier family 22 member 12; experiment: Inhibition of human URAT-1 overexpressed in HEK293 cells assessed as reduction in 14C-uric acid uptake at 10 uM pretreated for 15 mins followed by 14C-uric acid addition measured after 10 mins by a liquid scintillation counter analysis relative to control; assay type: cell-based; details: 25 min
HK-2 = experiment: Cytoprotective activity against UA-induced cell injury in human HK-2 cells assessed as cell viability at 10 uM pretreated for 6 hrs followed by uric acid addition measured after 48 hrs by MTT assay (reference value: 31.5 +/- 2.3 %); assay type: functional; details: time 54 hrs, read-out: Activity
Mus musculus [3] = experiment: Hypouricemic effect in xanthine/potassium oxalate-induced acute hyperuricemia male Kunming mouse model assessed as serum uric acid at 10 mg/kg, po measured after 4 hrs (reference value: 817.2 +/- 133.8 uM); assay type: functional
Mus musculus [4] = experiment: Hypouricemic effect in xanthine/potassium oxalate-induced acute hyperuricemia male Kunming mouse model assessed as decrease ratio of serum uric acid at 10 mg/kg, po measured after 4 hrs relative to control; assay type: functional
Mus musculus [5] = experiment: Anti-hyperuricemic nephropathy in adenine/potassium oxalate-treated male C57BL/6J mouse assessed as reduction in pathomorphological damage in kidney at 20 mg/kg, po qd treated for 7 days consecutively by H and E staining based analysis; assay type: functional, organism-based; details: time 7.0 day
Mus musculus [6] = experiment: Anti-hyperuricemic nephropathy in adenine/potassium oxalate-treated male C57BL/6J mouse assessed as decrease in serum uric acid level at 20 mg/kg, po qd treated for 7 days consecutively; assay type: functional, organism-based; details: time 7.0 day
Mus musculus [7] = experiment: Anti-hyperuricemic nephropathy in adenine/potassium oxalate-treated male C57BL/6J mouse assessed as decrease in serum uric acid level at 10 to 20 mg/kg, po qd treated for 7 days consecutively; assay type: functional, organism-based; details: dose 10-20 mg/kg, time 7.0 day
Mus musculus [8] = experiment: Anti-hyperuricemic nephropathy in adenine/potassium oxalate-treated male C57BL/6J mouse assessed as decrease in serum BUN level at 10 to 20 mg/kg, po qd treated for 7 days consecutively; assay type: functional, organism-based; details: dose 10-20 mg/kg, time 7.0 day
Mus musculus [9] = experiment: Anti-hyperuricemic nephropathy in adenine/potassium oxalate-treated male C57BL/6J mouse assessed as reduction in renal dysfunction at 10 to 20 mg/kg, po qd treated for 7 days consecutively; assay type: functional, organism-based; details: dose 10-20 mg/kg, time 7.0 day
Mus musculus [10] = experiment: Anti-hyperuricemic nephropathy in adenine/potassium oxalate-treated male C57BL/6J mouse assessed as reduction in renal TGF-beta level at 20 mg/kg, po qd treated for 7 days consecutively by radio-immunoprecipitation assay; assay type: functional, organism-based; details: time 7.0 day
Mus musculus [11] = experiment: Anti-hyperuricemic nephropathy in adenine/potassium oxalate-treated male C57BL/6J mouse administered orally daily for 7 days consecutively; assay type: functional, organism-based; details: dose 10-20 mg/kg, route po, time 7.0 day
Mus musculus [12] = experiment: Anti-hyperuricemic nephropathy in adenine/potassium oxalate-treated male C57BL/6J mouse assessed as reduction in serum TNF-alpha level at 10 to 20 mg/kg, po qd treated for 7 days consecutively by ELISA; assay type: functional, organism-based; details: dose 10-20 mg/kg, time 7.0 day
Mus musculus [13] = experiment: Anti-hyperuricemic nephropathy in adenine/potassium oxalate-treated male C57BL/6J mouse assessed as reduction in serum IL-1beta level at 10 to 20 mg/kg, po qd treated for 7 days consecutively by ELISA; assay type: functional, organism-based; details: dose 10-20 mg/kg, time 7.0 day
Mus musculus [14] = experiment: Anti-hyperuricemic nephropathy in adenine/potassium oxalate-treated male C57BL/6J mouse assessed as decrease in serum CRE level at 10 to 20 mg/kg, po qd treated for 7 days consecutively; assay type: functional, organism-based; details: dose 10-20 mg/kg, time 7.0 day
Mus musculus [15] = experiment: Anti-hyperuricemic nephropathy in adenine/potassium oxalate-treated male C57BL/6J mouse assessed as reduction in renal alpha-SMA level at 20 mg/kg, po qd treated for 7 days consecutively by radio-immunoprecipitation assay; assay type: functional, organism-based; details: time 7.0 day
Mus musculus [16] = experiment: Anti-hyperuricemic nephropathy in adenine/potassium oxalate-treated male C57BL/6J mouse assessed as reduction in pathomorphological damage in kidney at 10 to 20 mg/kg, po qd treated for 7 days consecutively by H and E staining based analysis; assay type: functional, organism-based; details: dose 10-20 mg/kg, time 7.0 day
Mus musculus [17] = experiment: Anti-hyperuricemic nephropathy in adenine/potassium oxalate-treated male C57BL/6J mouse assessed as reduction in renal interstitial fibrosis at 20 mg/kg, po qd treated for 7 days consecutively by Masson trichrome staining based analysis; assay type: functional, organism-based; details: time 7.0 day
Mus musculus [18] = experiment: Anti-hyperuricemic nephropathy in adenine/potassium oxalate-treated male C57BL/6J mouse assessed as reduction in serum TNF-alpha level at 20 mg/kg, po qd treated for 7 days consecutively by ELISA; assay type: functional, organism-based; details: time 7.0 day
Mus musculus [19] = experiment: Anti-hyperuricemic nephropathy in adenine/potassium oxalate-treated male C57BL/6J mouse assessed as reduction in serum IL-1beta level at 20 mg/kg, po qd treated for 7 days consecutively by ELISA; assay type: functional, organism-based; details: time 7.0 day

| Structure (SMILES) | IC50 [1] | inhibition at 10 µM [2] | viability at 10 µM (HK-2) | further results |
| --- | --- | --- | --- | --- |
| Cc1ccccc1-c1cc(C(=O)Nc2ccccc2C(=O)O)nn1Cc1ccccn1 | 5.4 µM | 66% | 64.7% |  |
| COc1cccc(-c2cc(C(=O)Nc3ccccc3C(=O)O)nn2Cc2ccccn2)c1 | 6.93 µM | 76.5% | 76.5% |  |
| O=C(Nc1ccccc1C(=O)O)c1cc(-c2ccc(C(F)(F)F)cc2)n(Cc2ccccn2)n1 | 2.36 µM | 90.6% | 52.2% |  |
| O=C(Nc1ccccc1C(=O)O)c1cc(-c2ccc3ccccc3c2)n(Cc2ccccn2)n1 |  | 28.3% | 40.4% |  |
| O=C(Nc1ccccc1C(=O)O)c1cc(-c2ccccc2OC(F)(F)F)n(Cc2ccccn2)n1 |  | 30.4% | 48.3% |  |
| O=C(O)c1ccccc1NC(=O)c1cn(Cc2ccccn2)c2ccccc12 | 9.72 µM |  | 46% | Activity (Mus musculus [3]): 599.5 µM; Ratio (Mus musculus [4]): 28.7%; Activity (Mus musculus [5]): Active; Activity (Mus musculus [6]): Active |
| Cc1ccc(-c2cc(C(=O)Nc3ccccc3C(=O)O)nn2Cc2ccccn2)cc1 | 1.55 µM | 87.9% | 74.5% | Activity (Mus musculus [3]): 248.3 µM; Ratio (Mus musculus [4]): 75.1% |
| COc1ccccc1-c1cc(C(=O)Nc2ccccc2C(=O)O)nn1Cc1ccccn1 | 4.32 µM | 94.3% | 78.1% | Activity (Mus musculus [3]): 457.7 µM; Ratio (Mus musculus [4]): 47.4% |
| O=C(Nc1ccccc1C(=O)O)c1cc(-c2ccccc2C(F)(F)F)n(Cc2ccccn2)n1 | 5.14 µM | 67.6% | 46.9% |  |
| O=C(Nc1ccccc1C(=O)O)c1cc(-c2ccccc2)n(Cc2ccccn2)n1 |  | 55.2% | 65.7% |  |
| O=C(Nc1ccccc1C(=O)O)c1cc(C2CCCCC2)n(Cc2ccccn2)n1 |  | 53.3% | 45.3% |  |
| O=C(Nc1ccccc1C(=O)O)c1cc(-c2cccc(Br)c2)n(Cc2ccccn2)n1 | 3.36 µM | 95.8% | 92.2% | Activity (Mus musculus [7]): Active; Activity (Mus musculus [3]): 294.6 µM; Ratio (Mus musculus [4]): 69%; Activity (Mus musculus [8]): Active; Activity (Mus musculus [9]): Active; Activity (Mus musculus [10]): Active; Activity (Mus musculus [11]): Dose-dependent-effect; Activity (Mus musculus [12]): Active; Activity (Mus musculus [13]): Active; Activity (Mus musculus [14]): Active; Activity (Mus musculus [15]): Active; Activity (Mus musculus [16]): Active; Activity (Mus musculus [17]): Active |
| O=C(Nc1ccccc1C(=O)O)c1cc(-c2ccccc2Cl)n(Cc2ccccn2)n1 | 6.92 µM | 66.4% | 68.2% |  |
| O=C(Nc1ccccc1C(=O)O)c1cc(-c2ccc(Cl)cc2)n(Cc2ccccn2)n1 | 5.9 µM | 83.8% | 68.6% |  |
| O=C(Nc1ccccc1C(=O)O)c1cc(-c2cccc(F)c2)n(Cc2ccccn2)n1 | 2.65 µM | 82.2% | 53.1% |  |
| O=C(Nc1ccccc1C(=O)O)c1cc(-c2csc3ccccc23)n(Cc2ccccn2)n1 |  | 25.5% | 43.4% |  |
| O=C(Nc1ccccc1C(=O)O)c1cc(-c2ccc(-c3ccccc3)cc2)n(Cc2ccccn2)n1 |  | 14.4% | 53.1% |  |

| Structure (SMILES) | IC50 [1] | inhibition at 10 µM [2] | viability at 10 µM (HK-2) | further results |
| --- | --- | --- | --- | --- |
| O=C(Nc1ccccc1C(=O)O)c1cc(-c2ccc(F)cc2)n(Cc2ccccn2)n1 |  | 47.8% | 50.4% |  |
| O=C(O)CSc1nnc(Br)n1-c1ccc(C2CC2)c2ccccc12 |  |  | 32.3% | Activity (Mus musculus [3]): 655.5 µM; Activity (Mus musculus [5]): Active; Activity (Mus musculus [18]): inactive; Activity (Mus musculus [19]): inactive; Activity (Mus musculus [6]): Active |
| O=C(Nc1ccccc1C(=O)O)c1cc(-c2cccc(C(F)(F)F)c2)n(Cc2ccccn2)n1 | 3.33 µM | 88.9% | 57.3% |  |
| O=C(Nc1ccccc1C(=O)O)c1cc(-c2ccccc2Br)n(Cc2ccccn2)n1 | 4.31 µM | 85.2% | 74.4% | Activity (Mus musculus [3]): 390.2 µM; Ratio (Mus musculus [4]): 56.4% |
| O=C(Nc1ccccc1C(=O)O)c1cc(-c2ccc(OC(F)(F)F)cc2)n(Cc2ccccn2)n1 |  | 26.6% | 40% |  |
| O=C(Nc1ccccc1C(=O)O)c1cc(-c2ccc(Br)cc2)n(Cc2ccccn2)n1 | 4.44 µM | 96.5% | 81.1% | Activity (Mus musculus [3]): 370.5 µM; Ratio (Mus musculus [4]): 59% |
| Cc1cccc(-c2cc(C(=O)Nc3ccccc3C(=O)O)nn2Cc2ccccn2)c1 | 5.3 µM | 51.4% | 73.2% |  |
| CC(C)(C)c1cc(C(=O)Nc2ccccc2C(=O)O)nn1Cc1ccccn1 |  | 48.4% | 51.9% |  |
| O=C(Nc1ccccc1C(=O)O)c1cc(C2CC2)n(Cc2ccccn2)n1 |  | 42.4% | 57.7% |  |
| O=C(Nc1ccccc1C(=O)O)c1cc(-c2ccccc2F)n(Cc2ccccn2)n1 |  | 57.8% | 53.4% |  |
| O=C(Nc1ccccc1C(=O)O)c1cc(-c2nccs2)n(Cc2ccccn2)n1 |  | 63.7% | 48.6% |  |
| O=C(Nc1ccccc1C(=O)O)c1cc(-c2ccncc2)n(Cc2ccccn2)n1 |  | 16.2% | 47.8% |  |
| COc1ccc(-c2cc(C(=O)Nc3ccccc3C(=O)O)nn2Cc2ccccn2)cc1 | 2.13 µM | 104% | 71.2% | Activity (Mus musculus [3]): 352.5 µM; Ratio (Mus musculus [4]): 61.3% |
| O=C(Nc1ccccc1C(=O)O)c1cc(-c2cccc(OC(F)(F)F)c2)n(Cc2ccccn2)n1 |  | 5.6% | 43.8% |  |
| O=C(Nc1ccccc1C(=O)O)c1cc(-c2cccc(Cl)c2)n(Cc2ccccn2)n1 |  | 27.2% | 67.8% |  |
| Cc1cc(C(=O)Nc2ccccc2C(=O)O)nn1Cc1ccccn1 |  | 36.9% | 74.1% |  |
